Laboratory results taken from patent US4528397A, “Aminocarboxylic acid derivatives” (Sanraku-Ocean Co., Ltd., priority 1982, dated 1985).
Blank lines part the entries; values can stand above or below the compound they belong to.

Legend:
dipeptidase = target: T1, dipeptidase (Rattus norvegicus, UniProt P31430); assay: In vitro inhibition of partially purified rat kidney dipeptidase (spectrophotometric); type: biochemical; conditions: pH 8.0, 37° C., substrate of Table 1 (glycyldehydrophenylalanine or PS-5) not stated; for inhibition at 100 µM: inhibitor 10^-4 M
T1 construct: from tissue; host or cells: rat kidney, microsome fraction
Description: (1) Purification of dipeptidase
Rats were sacrificed by decapitation, and about 12 g of fresh kidneys were collected. A microsome fraction was obtained by the Hogboom's subcellular fractionating method used on differential centrifugation (Methods in Enzymology, Vol. 1, pages 16-19, Academic Press, New York, 1955). The microsome fraction was treated with 400 μg/ml of trypsin at 0° C. for 16 hours, and then supercentrifugally fractionated at 10^5 G for 60 minutes at 0° C.
The resulting precipitate was suspended in 20 ml of tris-HCl buffer (20 mM, pH 7.6) containing a detergent (0.4% Triton X-100), and then supercentrifugally fractionated at 10^5 G for 60 minutes at 0° C. The supernatant liquid was charged onto a column (15×100 mm) of Sephadex A-50 (Cl-form), and the column was eluted with tris-HCl buffer (20 mM, pH 7.0) containing a detergent (0.4% Triton X-100) with a sodium chloride concentration linear gradient from 0 to 0.5M.
The active fractions were concentrated with polyethylene glycol 4000, and then successively purified by a Sephadex G-150 (25×900 mm) column and a Sephadex G-200 (25×900 mm) column using the same tris-HCl buffer as above to obtain a partially purified sample of the dipeptidase.
(2) Measurement of inhibitory activity
Fifty microliters of the enzyme obtained as above was preincubated together with 30 μl of an inhibitor solution in a cuvette at 37° C. for 5 minutes. Then, 2.82 ml of a solution of glycyldehydrophenylalanine (5.3×10^-5 M) preincubated to 37° C. as a substrate in tris-HCl (0.1M, pH 8.0) was added, and the reaction was started. The reaction was carried out in a cuvette of a Hitachi spectrophotometer equipped with a constant temperature (37° C.) device, and by a recorder, a decrease in the absorbance of the reaction mixture at a wavelength of 275 nm during 5 minutes was measured.
The same experiment as above was carried out using a tris-HCl (pH 8.0) solution of antibiotic PS-5 (1.03 mM) as a substrate, and a decrease in the absorbance of the reaction mixture at a wavelength of 300 nm during 5 minutes was measured.
The percent inhibition and ID50 at a predetermined inhibitor concentration were determined from the measured values obtained as above and that obtained in a control in which no inhibitor was used.

[1] = Coadministration of AEG and antibiotic PS-5: plasma concentration of antibiotic PS-5; type: in vivo, mice (male, ddY); conditions: for concentration at 5 min / concentration at 0.25 h / concentration at 0.5 h: mouse, plasma, sc, 2 mg
Description: (§1) Coadministration of N-(2-aminoethyl)glycine and antibiiotic PS-5
(§2) To groups of 5 mice each (male, ddY, aged 5 weeks) was orally administered 0.25 ml (20 mg/mouse) of an aqueous solution of N-(2-aminoethyl)glycine (AEG) in a concentration of 80 mg/ml (the solutions had been adjusted to pH 7.5 with 1N HCl). The same volume of pure water was administered to a control group. Thirty minutes later, 0.25 ml of a solution of antibiotic PS-5 Na salt (8 mg/ml) in M/100 PBS (pH 7.0) was subcutaneously administered. Blood was taken from the retroorbital sinus at various time intervals using a heparinized capillary (a thermohematocrit capiratry tube, total length 75 mm, outside diameter 1.45-1.65 mm). One end of the tube was sealed with IATROSEAL® (Iatron Laboratries) and the plasma was separated by centrifugal separation (3000 rpm, 10 minutes). Blood sampling was carried out a total of six times at 0 time (immediately before administration of the antibiotic PS-5) and 5 minutes, 15 minutes, 30 minutes, 60 minutes and 90 minutes after the administration of the antibiotic PS-5. The concentration of the antibiotic PS-5 in the plasma was disc-assayed against Comamonas terrigena B-996.

[2] = Coadministration of AEG and antibiotic PS-5: urinary recovery of antibiotic PS-5; type: in vivo, mice (male, ddY); conditions: mouse, urine, sc, 2 mg, 0-3 hrs
Description: as §1
as §2, with “The concentration of the antibiotic PS-5 in the plasma was disc-assayed against Comamonas terrigena B-996.” left out
On the other hand, the whole urine of the mice was taken 3 hours after the administration of the antibiotic PS-5, and the concentration of the antibiotic PS-5 in the collected whole urine was assayed by the same method as above. The mean concentrations for five mice was calculated.

T1 sequence (P31430 17-410): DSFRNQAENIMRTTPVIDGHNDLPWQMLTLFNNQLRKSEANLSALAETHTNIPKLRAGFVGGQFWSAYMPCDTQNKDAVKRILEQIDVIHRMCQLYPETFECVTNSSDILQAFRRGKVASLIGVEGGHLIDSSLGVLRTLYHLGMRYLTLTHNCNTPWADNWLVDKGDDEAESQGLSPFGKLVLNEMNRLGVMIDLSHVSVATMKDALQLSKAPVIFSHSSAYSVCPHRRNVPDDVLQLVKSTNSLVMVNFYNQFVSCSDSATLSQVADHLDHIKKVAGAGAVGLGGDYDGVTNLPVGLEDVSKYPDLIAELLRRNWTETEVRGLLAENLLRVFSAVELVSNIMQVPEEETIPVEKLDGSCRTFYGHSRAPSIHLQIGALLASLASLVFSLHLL

inhibition at 100 µM (dipeptidase): 38%
SMILES: NCCN[C@@H](Cc1ccccc1)C(=O)O [Compound 4, N-(2-aminoethyl)-L-phenylalanine]

inhibition at 100 µM (dipeptidase): 85%
IC50 (dipeptidase; read-out: ID50 (the source's name)): 22 µM
SMILES: N[C@H](CNCC(=O)O)Cc1ccccc1 [Compound 5, (S)-[N-(2-amino-2-benzyl)ethyl]glycine]

inhibition at 100 µM (dipeptidase): 42.4%
SMILES: C[C@H](N)CNCC(=O)O [Compound 6, (S)-N-(2-aminopropyl)glycine]

More lines, now with the values behind:

SMILES: NCCNCC(=O)O [Compound 1, N-(2-aminoethyl)glycine]
inhibition at 100 µM (dipeptidase): 86%

SMILES: NCCSCC(=O)O [Compound 2, (2-aminoethyl)thioacetic acid]
inhibition at 100 µM (dipeptidase): 2%

SMILES: C[C@H](NCCN)C(=O)O [Compound 3, N-(2-aminoethyl)-L-alanine]
inhibition at 100 µM (dipeptidase): 15.6%

SMILES: CC[C@H]1C(=O)N2C(C(=O)O)=C(SCCNC(C)=O)C[C@H]12 [antibiotic PS-5]
Concentration of antibiotic PS-5 in the plasma ([1]; AEG administered group (AEG 20 mg/mouse oral, 30 min before PS-5 s.c.), 0 min (immediately before PS-5)): 0 ng/mL
Concentration of antibiotic PS-5 in the plasma ([1]; AEG administered group, 60 min after PS-5 s.c.): 0 ng/mL
Concentration of antibiotic PS-5 in the plasma ([1]; AEG administered group, 90 min after PS-5 s.c.): 0 ng/mL
Concentration of antibiotic PS-5 in the plasma ([1]; Control group (water instead of AEG, then PS-5 s.c.), 0 min (immediately before PS-5)): 0 ng/mL
Concentration of antibiotic PS-5 in the plasma ([1]; Control group (water, PS-5 s.c.), 60 min): 0 ng/mL
Concentration of antibiotic PS-5 in the plasma ([1]; Control group (water, PS-5 s.c.), 90 min): 0 ng/mL
concentration at 5 min ([1]; AEG administered group, 5 min after PS-5 s.c.): 49600 ± 3700 ng/mL
concentration at 0.25 h ([1]; AEG administered group, 15 min after PS-5 s.c.): 21700 ± 2600 ng/mL
concentration at 0.5 h ([1]; AEG administered group, 30 min after PS-5 s.c.): 2300 ± 500 ng/mL
concentration at 5 min ([1]; Control group (water, PS-5 s.c.), 5 min): 52000 ± 4600 ng/mL
concentration at 0.25 h ([1]; Control group (water, PS-5 s.c.), 15 min): 15200 ± 1900 ng/mL
concentration at 0.5 h ([1]; Control group (water, PS-5 s.c.), 30 min): 1000 ± 100 ng/mL
dose excreted at 3 h ([2]; AEG administered group (AEG 20 mg/mouse oral, PS-5 s.c.)): 13.2%
dose excreted at 3 h ([2]; Control group (water, PS-5 s.c.)): 0%
